Publication PMC12203697, “Bioactive constituents from the edible seaweed Halymenia hawaiiana (Rhodophyta)” (Pharmaceutical Biology, 2025)
Converted amounts (≈) assume the structure as drawn. Like-named read-outs stand apart in the source and are kept apart here.

Legend:
S. aureus NEWMAN = experiment: Antibacterial MIC, broth microdilution with resazurin; type: cell-based, Staphylococcus aureus; conditions: S. aureus NEWMAN, Gram-positive
Source text: (§1) Methicillin-resistant Staphylococcus aureus (MRSA), methicillin-susceptible S. aureus (MSSA), and Gram-negative clinical isolates of bacteria [Escherichia coli (9637) and Serratia marcescens ATCC 13880] were used for this study. […] MSSA HBP10, MSSA LUU7, MSSA R113, S. aureus ONE9, and MSSA POB2 were isolated in Hawaiʻi (Gerken et al. [2021]). Mueller Hinton Broth (MHB, GTIN:00382902979630, Becton, Dickinson and Company, Franklin Lakes, NJ, USA) and Mueller Hinton Agar (MHA, GTIN:00382902252504, Becton, Dickinson and Company, Franklin Lakes, NJ, USA,) were used for bacterial inoculation. MRSA was a pathogen strain causing hospital-acquired infections in 1982. This strain easily acquires resistance to antibiotics, such as vancomycin. MSSA strains isolated from the Island of Hawaiʻi included: Honolʻii Beach Park (HBP10) carry the genes erm(C), aph(3′)-III, and mecA, which provide resistance to macrolide, aminoglycoside, and beta-lactam antibiotics, respectively; Wailuku River (LUU7) which contains the blaZ gene (beta-lactam resistance) (Gerken et al. [2021]). Richardson’s Beach Park (R113) and Onekahakaha (ONE9) which is known for its virulence factors (hlgA, hlgB, hlgC, lukD, and lukE).
(§2) The minimum inhibitory concentrations (MICs) were determined using a two-fold serial dilution method with MHB following the recommendations of the Clinical and Laboratory Standards Institute (CLSI [2012]; Elshikh et al. [2016]). In brief, serial two-fold dilutions of the samples in DMSO were mixed with MHB in a 96-well microplate. Then, 50 µL of bacteria suspension was added to each well, resulting in a final concentration of 1 × 10^4 colony-forming units/well. The plates were incubated at 35–37 °C for 18–24 hr. After incubation, 10 µL of 0.18% resazurin (Cat. No. R7017, Sigma-Aldrich, USA) was added to each well (Elshikh et al. [2016]). The MIC was assessed within 2–3 hr after the addition of resazurin. All antimicrobial assays were performed in triplicate, using vancomycin (Cat. No. SBR00001, Sigma-Aldrich, USA) and gentamicin (Cat. No. G1397, Sigma-Aldrich, USA) as standard controls.

MRSA HBP10 = experiment: as above; type: cell-based, Staphylococcus aureus; conditions: MRSA HBP10, Gram-positive
Source text: as §1, §2

MRSA POB2 = experiment: as above; type: cell-based, Staphylococcus aureus; conditions: Staphylococcus aureus; MRSA POB2, Gram-positive; read-out: MIC
Source text: as §1, §2

S. aureus ONE9 = experiment: as above; type: cell-based; conditions: Staphylococcus aureus; S. aureus ONE9, Gram-positive; read-out: MIC
Source text: as §1, §2

MSSA R113 = experiment: as above; type: cell-based; conditions: Staphylococcus aureus; MSSA R113, Gram-positive; read-out: MIC
Source text: as §1, §2

S. aureus 8325-4 = experiment: as above; type: cell-based; conditions: Staphylococcus aureus, 83254; S. aureus 8325-4, Gram-positive; read-out: MIC
Source text: as §1, §2

MSSA LUU7 = experiment: as above; type: cell-based; conditions: Staphylococcus aureus; MSSA LUU7, Gram-positive; read-out: MIC
Source text: as §1, §2

E. coli = experiment: as above; type: cell-based; conditions: Escherichia coli, Gram-negative
Source text: as §1, §2

MRSA USA300 = experiment: as above; type: cell-based; conditions: Staphylococcus aureus; MRSA USA300, Gram-positive; read-out: MIC
Source text: as §1, §2

[1] = SRB cytotoxicity assay, NIH/3T3 cells; type: cell-based, murine; conditions: mouse, NIH/3T3 fibroblasts (non-tumorigenic)
Source text: OD0 = Optical density of cells before treatment (baseline reading).

S. aureus CART817 = experiment: Antibacterial MIC, broth microdilution with resazurin; type: cell-based; conditions: Staphylococcus aureus; S. aureus CART817, Gram-positive; read-out: MIC
Experimental: as §2

[2] = system: LPS-induced nitric oxide (NO) production in RAW 264.7 cells; experiment: Inhibition of NO generation in LPS-induced RAW 264.7 cells (Griess); type: cell-based, murine; conditions: for IC50: Mus musculus
Experimental: The nitrite concentration in the culture medium was measured to indicate nitric oxide (NO) production as previously described (Min et al. [2009]). The murine macrophage RAW 264.7 cell line was obtained from ATCC, Manassas, VA, USA, and maintained in Dulbecco’s modified Eagle’s medium supplemented with 10% heat-inactivated FBS (Cat. No. A5670801, Gibco BRL Co, Grand Island, NY, USA), penicillin G (100 units/mL) (Cat. No. P7794, Sigma-Aldrich, USA), streptomycin (100 µg/mL) (Cat. No. S9137, Sigma-Aldrich, USA), and L-glutamine (2 mM) (Cat. No. 25030081, Gibco BRL Co, Grand Island, NY, USA). In brief, RAW 264.7 cells were seeded at a density of 4 × 10^4 cells/well in phenol red-free media (Cat. No. 11835030, Gibco, USA) in a 96-well plate, and incubated in a humidified incubator with 5% CO2 at 37 °C for 24 hr. […] The concentration of nitric oxide production was assessed using the Griess reagent, which consists of a 1:1 (v/v) mixture of 1% sulfanilamide (Cat No. A13001, Alfa Aesar, Massachusetts, USA) in H3PO4 and N-(1-naphthyl)ethylenediamine dihydrochloride (Cat. No. 102397, MP Biomedicals, USA). Absorbance was recorded with a microplate reader (SynergyMx, BioTeK, Winooski, VT, USA) at 540 nm. A standard curve was created using sodium nitrite (1–100 μM) (Cat. No. 44227, Alfa Aesar, Massachusetts, USA). A sulforhodamine B (SRB) assay was employed to assess the cellular viability of the samples with RAW 264.7 cells under a similar experimental setup. The final % inhibition of NO production was adjusted based on cell viability.

[3] = Staphylococcus aureus, read-out: MIC

SMILES	MIC (S. aureus NEWMAN)	MIC (S. aureus NEWMAN; [3])	MIC (MRSA HBP10)	MIC (MRSA HBP10; [3])	MIC (MRSA POB2)	MIC (S. aureus ONE9)	MIC (MSSA R113)	MIC (S. aureus 8325-4)	MIC (MSSA LUU7)	MIC (E. coli)	MIC (MRSA USA300)	IC50 at 72 h [1]	MIC (S. aureus CART817)	IC50 ([2]; RAW264.7, RAW 264.7 cells, LPS 1 μg/mL, adjusted for cell viability, read-out: IC50, inhibition of LPS-induced NO production)	inhibition of NO production at 5 µg/ml (in words) ([2]; RAW 264.7 cells, LPS-induced)	IC50 ([2]; RAW264.7, read-out: IC50, inhibition of LPS-induced NO production)	NO inhibitory activity (in words) ([2]; RAW 264.7 cells, LPS-induced, highest concentration 50 μg/mL)
CC(C)CCC[C@@H](C)[C@H]1CCC2[C@]1(C)CC=C1[C@]23C=C[C@]2(C[C@@H](O)CC[C@]12C)OO3 (stereo partly drawn) [Compound 11, (3β-5α-8α)5,8-epidioxycholesta-6,9(1)-diene-3-ol]	8 µg/mL (≈ 19.3 µM)	8 µg/mL (≈ 19.3 µM)	64 µg/mL (≈ 154 µM)	64 µg/mL (≈ 154 µM)	128 µg/mL (≈ 309 µM)	128 µg/mL (≈ 309 µM)	128 µg/mL (≈ 309 µM)	128 µg/mL (≈ 309 µM)	128 µg/mL (≈ 309 µM)	128 µg/mL (≈ 309 µM)	128 µg/mL (≈ 309 µM)	144 ± 6.15 µM	128 µg/mL (≈ 309 µM)	–	–	–	–
CC(C)CCC[C@@H](C)[C@H]1CC[C@H]2[C@@H]3CC=C4C[C@@H](O)CC[C@]4(C)[C@H]3CC[C@]12C [Compound 9, cholesterol]	–	64 µg/mL (≈ 166 µM)	–	128 µg/mL (≈ 331 µM)	128 µg/mL (≈ 331 µM)	128 µg/mL (≈ 331 µM)	128 µg/mL (≈ 331 µM)	128 µg/mL (≈ 331 µM)	128 µg/mL (≈ 331 µM)	128 µg/mL (≈ 331 µM)	128 µg/mL (≈ 331 µM)	181 ± 8.04 µM	128 µg/mL (≈ 331 µM)	50.2 ± 2.2 µM	significant (p > 0.001) inhibition	–	–
CC(C)CCC[C@@H](C)[C@H]1CCC2[C@@]34C=C[C@]5(C[C@@H](O)CC[C@]5(C)C3CC[C@@]21C)OO4 (stereo partly shown) [Compound 10, 7-dehydrochoresterol peroxide]	8 µg/mL (≈ 19.2 µM)	8 µg/mL (≈ 19.2 µM)	32 µg/mL (≈ 76.8 µM)	32 µg/mL (≈ 76.8 µM)	128 µg/mL (≈ 307 µM)	128 µg/mL (≈ 307 µM)	128 µg/mL (≈ 307 µM)	128 µg/mL (≈ 307 µM)	128 µg/mL (≈ 307 µM)	128 µg/mL (≈ 307 µM)	128 µg/mL (≈ 307 µM)	96.6 ± 4.34 µM	128 µg/mL (≈ 307 µM)	–	significant (p > 0.001) inhibition	53.6 ± 2.3 µM	–
Nc1ccn([C@H]2C[C@H](O)[C@@H](CO)O2)c(=O)n1 [Compound 1, deoxycytidine]	–	128 µg/mL (≈ 563 µM)	–	128 µg/mL (≈ 563 µM)	128 µg/mL (≈ 563 µM)	128 µg/mL (≈ 563 µM)	128 µg/mL (≈ 563 µM)	128 µg/mL (≈ 563 µM)	128 µg/mL (≈ 563 µM)	128 µg/mL (≈ 563 µM)	128 µg/mL (≈ 563 µM)	–	128 µg/mL (≈ 563 µM)	–	–	–	no significant NO inhibitory activity
